The values that follow come from USRE37410E, “Controlled local delivery of chemotherapeutic agents for treating solid tumors” (priority 1999, dated 2001).

For series [1] the following is noted: in vivo; cited from earlier work.
For series [2], the system named is glioma lines. The note with it: in vitro; cited from earlier work.
In series [3] the test system is L1210. The note with it: in vitro; cited from earlier work.
Series [4] relates to JH1. The experiment in a line: Clonogenic assay, camptothecin. The conditions noted are these: Homo sapiens; for IC100: read-out: concentration for total cell kill. The format is cell-based. An excerpt:
(§1) Tumor cell lines. […] The F98 glioma cells were provided by Dr. Joseph Goodman, Department of Neurosurgery, Ohio State University, Columbus, Ohio. The human glioma cell lines U87 and U373 were provided by Dr. O. Michael Colvin, Johns Hopkins University School of Medicine, Baltimore, Md. JH1 is a cell line established from a biopsy specimen from a patient with a pathologically confirmed glioblastoma multiform.
Cell culture of freshly biopsied gliomas. Biopsy samples were obtained from the operating room and transported in sterile specimen containers. Specimens were filtered through a 230 μm mesh collector screen (Bellco Glass, Inc., Vineland, N.J.) with use of a glass pestle. The specimen was then centrifuged at 1000 rpm for 10 minutes. The supernatant fraction was discarded and the cell pellet was resuspended in a 1 ml of minimum essential medium (Gibco BRL, Grand Island, N.Y.) with 10% fetal bovine serum, 0.5% L-glutamine, penicillin (base; 80.5 units/ml), and streptomycin (80.5 μg/ml). The suspension was passed through a 25 gauge needle, after which it was recentrifuged at 1000 rpm for 5 minutes. The supernatant fraction was discarded and the pellet was resuspended in 5 ml of medium. This suspension was plated onto T75 culture flasks at various dilutions and incubated at 37° C. The medium was changed approximately every 3 days. When the initial culture reached confluence, the cells were trypsinized and passaged. Sensitivity was assessed by the clonogenic assay below, beginning with the second passage.
(§2) Clonogenic assay. The sensitivity of each glioma cell line was tested in a clonogenic assay. At confluence, the cells were trypsinized and plated at 400 cells per 60 mm well. After 24 hours, fresh medium containing camptothecin at various concentrations was added. For brief exposure experiments, the camptothecin was removed and replaced with fresh medium after 1 hour; for continuous exposure, medium was left in place for 7 days. At 7 days, all plates were fixed and stained with coomassie brilliant blue (Bio Rad, Richmond, Calif.). Colonies containing more than 50 cells were identified and counted. Treatments were performed in triplicate. Survival was calculated as the number of colonies formed by the treated cells relative to the number of colonies formed by the untreated cells.

Series [5] deals with F98, 9L, U87, U373, JH1 cell lines. The series is described as follows: In vitro efficacy of camptothecin on several cell lines (clonogenic assay). The conditions noted are these: 168 h; rat and established human cell lines, continuous exposure; read-out: LD90 after continuous exposure. The format is cell-based.
Description: as §1
Cell culture of freshly biopsied gliomas. Biopsy samples were obtained from the operating room and transported in sterile specimen containers. Specimens were filtered through a 230 μm mesh collector screen (Bellco Glass, Inc., Vineland, N.J.) with use of a glass pestle. The specimen was then centrifuged at 1000 rpm for 10 minutes. The supernatant fraction was discarded and the cell pellet was resuspended in a 1 ml of minimum essential medium (Gibco BRL, Grand Island, N.Y.) with 10% fetal bovine serum, 0.5% L-glutamine, penicillin (base; 80.5 units/ml), and streptomycin (80.5 μg/ml). […] Sensitivity was assessed by the clonogenic assay below, beginning with the second passage.
Clonogenic assay. […] Colonies containing more than 50 cells were identified and counted. […] Survival was calculated as the number of colonies formed by the treated cells relative to the number of colonies formed by the untreated cells.

Series [6] has as its system melanoma and advanced gastrointestinal carcinoma. The conditions noted are these: human, in vivo; cited from earlier work.
For series [7] the following is noted: sodium salt formulation; cited from earlier work.
The test system of series [8] is U87. The series is described as follows: Clonogenic assay, camptothecin. The format is cell-based, human. The procedure:
as §1, §2

Series [9] deals with topoisomerase I. The note with it: cited from earlier work.
The test system of series [10] is rat Walker 256 carcinosarcoma. The note with it: in vitro; cited from earlier work.
In series [11] the test system is U373. The experiment in a line: Clonogenic assay, camptothecin. The format is cell-based. The note with it: Homo sapiens, U373 MG. The procedure: as §1, §2
The test system of series [12] is 9L. The series is described as follows: Clonogenic assay, camptothecin. The format is cell-based. The note with it: Rattus norvegicus. As for the experimental part: as §1, §2
Series [13] concerns F98. The experiment in a line: Clonogenic assay, camptothecin. The format is cell-based. The conditions noted are these: Rattus norvegicus. As for the experimental part: as §1, §2
The nature of series [14]: Intracranial local drug delivery by polymer implant in rat glioma model, P98 cells injected (Table 1 summary). The format is in vivo. The conditions noted are these: p(FAD:SA) 5% load. The text has this: Table 1 is a summary of studies on intracranial local drug delivery in rat glioma models, as described in the following examples.
For series [15], the system named is 9L. The experiment in a line: Intracranial local drug delivery by polymer implant in rat glioma model, median survival (Table 1 summary). The conditions noted are these: in vivo.
The conditions of series [16]: cited from earlier work.
Where [17] appears, read: 1 h, read-out: LD90 1 Hour Exposure.
Where [18] appears, read: 168 h, continuous exposure, 7 days, read-out: LD90 Continuous Exposure.

Values joined by “and” are separate entries in the source; they are usually repeats but may differ in a detail not shown here. Equal values may be shown once. Read-outs that look alike come from different tables or passages of the source.

With `COc1cccc2c1C(=O)c1c(O)c3c(c(O)c1C2=O)C[C@@](O)(C(=O)CO)C[C@@H]3O[C@H]1C[C@H](N)[C@H](O)[C@H](C)O1` [Adriamycin], in [1], the cardiac toxicity result was “significant dose related cardiac toxicity”. In [2], the sensitivity of gliomas result was “highly sensitive”.
For `CC[C@@]1(O)C(=O)OCc2c1cc1n(c2=O)Cc2cc3ccccc3nc2-1` [camptothecin, 4-ethyl-4-hydroxy-1H-pyrano[3',4':6,7]indolizino[1,2-b] quinoline-3,14(4H,12H)-dione], the cytotoxic anti-tumor activity result in [3] and in series [10] was “strong cytotoxic anti-tumor activity” each time. Further, the IC90 in [4] (setting [17]) was 100 nM; in [4] (setting [18]), 26 nM; in series [5], at most 100 nM; in [8] (1 hour exposure, 60 min, read-out: LD90 1 Hour Exposure) it was 1400 nM; in series [8] (Homo sapiens, U-87 MG, 1 h, 1 hour exposure, read-out: LD90 1 Hour Exposure), 1200 nM; in series [8] (Homo sapiens, U-87 MG, 168 h, continuous exposure, 7 days, read-out: LD90 Continuous Exposure) it was 100 nM. In addition, the IC90 in series [11] (setting [17]) was found to be 300 nM; in series [11] (setting [18]), 26 nM; in series [12] (setting [17]), 1400 nM; in [12] (setting [18]), 100 nM; in series [13] (F98, 1 h, read-out: LD90 1 Hour Exposure), 1400 nM; in series [13] (F98, 168 h, continuous exposure, 7 days, read-out: LD90 Continuous Exposure), 100 nM. Besides, the IC100 in [4] (1-hour exposure) was found to be 0.14 µM; in [4] (continuous exposure) it was 0.03 µM. The systemic toxicity result in series [6] was “unexpectedly severe systemic toxicity”. Further, the tumoral responses result in [6] is recorded as “poor tumoral responses”. Besides, the protein binding entry in [7] was “strongly protein-bound”. In addition, the “inhibition of topoisomerase I” value in series [9] is “irreversibly inhibiting”.
As for `N.N.O=C([O-])C1(C(=O)[O-])CCC1.[Pt+2]` [Carboplatin], the “% increase survival” value in series [14] (Rx day 5) was 225%. Moreover, in series [14] (Rx day 5, 1 × 10^5 cells injected, controls 16, n = 18), the “Median survival in days, Rx group” value amounted to 52 days.
Turning to `CN(C)c1ccc(O)c2c1C[C@H]1C[C@H]3[C@H](N(C)C)C(O)=C(C(N)=O)C(=O)[C@@]3(O)C(O)=C1C2=O` [minocycline], the “% increase survival > no Rx” value in series [15] is given as 330%. In [15] (ip), the “% increase survival > ip BCNU” value is reported as 93%.
For the compound `O=NN(CCCl)C(=O)NCCCl` [BCNU, 1,3-bis(2-chloroethyl)-1-nitrosourea], in series [16] (21 days after implantation), the “radius from implant within which BCNU is detectable” value is reported as at most 3 mm. Further, the “radius from implant within which BCNU is detectable” value in series [16] (Day 7) was at most 40 mm. For the same compound, the concentration in series [16] (PCPP-SA (20:80), initially, read-out: average concentration in brain) was 8000 µM. Besides, in series [16] (over time), the “amount of brain exposed to BCNU” value is given as “decrease after three days”. In series [15], the “% increase survival” value is 634% and 437%; the “Median survival in days, Rx group” value was 80 and 62.3.
